Laboratory results published in US10028961B2, “Therapeutically active compounds and their methods of use” (AGIOS PHARMACEUTICALS, INC., priority 2013, dated 2018).
Like-named read-outs stand apart in the source and are kept apart here.

Columns and labels:
[1] = target: IDH1 wt/IDH1 R132H heterodimer (Homo sapiens (Human), UniProt O75874, R132H); assay: In vitro assay for IDH1m R132H inhibitors, IDH1 wt/IDH1 R132H heterodimer, NADPH depletion (diaphorase/resazurin); assay type: biochemical
Outline: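 Read-out is NADPH left after α-KG reduction to 2-HG, measured via resorufin fluorescence after 5 min diaphorase/resazurin step at 25° C. Enzyme is sf9-expressed IDH1wt-his/IDH1R132H-flag heterodimer, pre-incubated 1 hr at room temperature with compound and cofactor. IC50s from DMSO stocks diluted 1:50.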

[2] = target: IDH1-R132H homodimer enzyme (Homo sapiens (Human), UniProt O75874, R132H); assay: In vitro assay IDH1-R132H homodimer, NADPH depletion assay with NADPH/NADP preincubation; assay type: biochemical; settings: 5 μM NADPH and 37.5 μM NADP
IDH1-R132H homodimer enzyme, sequence (O75874 whole entry R132H): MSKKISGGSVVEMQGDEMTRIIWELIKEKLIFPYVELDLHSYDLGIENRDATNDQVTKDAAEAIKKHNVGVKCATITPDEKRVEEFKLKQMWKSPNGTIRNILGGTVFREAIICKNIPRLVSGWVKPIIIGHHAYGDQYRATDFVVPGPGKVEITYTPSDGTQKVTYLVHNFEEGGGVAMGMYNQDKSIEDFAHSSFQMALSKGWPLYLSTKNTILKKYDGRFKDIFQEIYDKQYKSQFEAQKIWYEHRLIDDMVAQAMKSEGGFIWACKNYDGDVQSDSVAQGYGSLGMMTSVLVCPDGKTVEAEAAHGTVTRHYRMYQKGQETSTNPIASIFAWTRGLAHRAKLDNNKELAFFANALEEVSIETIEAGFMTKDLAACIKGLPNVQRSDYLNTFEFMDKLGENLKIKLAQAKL
Outline: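 Compounds were added from DMSO at 50× final concentration, and the mutant enzyme was incubated 60 min at room temperature after starting with a substrate mix holding NADPH and 5 mM alpha-ketoglutarate. Residual cofactor, read by fluorescence after excess diaphorase and resazurin, reflects enzyme turnover.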

[3] = target: IDH1-R132C homodimer enzyme (Homo sapiens (Human), UniProt O75874, R132C); assay: In vitro assay IDH1-R132C homodimer, NADPH depletion assay with NADPH/NADP preincubation; assay type: biochemical; settings: 5 uM NADPH and 28.75 uM NADP, read-out: IDH R132C NADPH/NADP IC50
IDH1-R132C homodimer enzyme, sequence (O75874 whole entry R132C): as the sequence (O75874 whole entry R132H) above, with H132C counted along it
Method: The following describes the experimental procedures that can be used to obtain data on columns 3 and 5 of Table 5.
A test compound is prepared as 10 mM stock in DMSO and diluted to 50× final concentration in DMSO, for a 50 μl reaction mixture. IDH enzyme activity converting alpha-ketoglutarate to 2-hydroxyglutaric acid is measured using a NADPH depletion assay. In the assay the remaining cofactor is measured at the end of the reaction with the addition of a catalytic excess of diaphorase and resazurin, to generate a fluorescent signal in proportion to the amount of NADPH remaining. […] The reaction is started with the addition of 10 μl of Substrate Mix ([…], 5 mM alpha-ketoglutarate, in Assay Buffer) and the mixture is incubated for 60 minutes at room temperature.
The concentration of alpha-ketoglutarate in the Substrate Buffer is 1 mM.

IDH2 R140Q [4] = target: T1, IDH2 R140Q (Homo sapiens (Human), UniProt P48735, R140Q); assay: In vitro assay for IDH2m R140Q inhibitors, cofactor depletion assay; assay type: biochemical; settings: IDH2 R140Q enzyme
T1 sequence (P48735 40-452 R140Q): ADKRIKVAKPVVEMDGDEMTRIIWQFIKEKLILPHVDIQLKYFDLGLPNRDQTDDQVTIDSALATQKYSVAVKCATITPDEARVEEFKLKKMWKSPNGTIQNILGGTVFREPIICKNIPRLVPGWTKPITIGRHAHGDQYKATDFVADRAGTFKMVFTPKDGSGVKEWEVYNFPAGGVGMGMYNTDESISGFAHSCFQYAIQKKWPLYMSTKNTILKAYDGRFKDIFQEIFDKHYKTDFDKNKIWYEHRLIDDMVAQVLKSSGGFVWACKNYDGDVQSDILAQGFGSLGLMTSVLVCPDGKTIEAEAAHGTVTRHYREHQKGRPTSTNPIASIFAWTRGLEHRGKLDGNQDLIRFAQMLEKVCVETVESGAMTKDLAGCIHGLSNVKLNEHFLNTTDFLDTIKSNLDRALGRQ
Outline: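 Remaining cofactor measured fluorimetrically: diaphorase/resazurin Stop Mix […], halting the reaction. Before that, mutant enzyme and compound sat 1 h at RT, then substrate mix (4 μM NADPH, 1.6 mM α-KG) was added for 16 h at RT.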

[5] = test system: U87MG pLVX-IDH2 R140Q-neo cells; assay: U87MG pLVX-IDH2 R140Q-neo cell based assay, 2-HG by LC-MS; settings: Homo sapiens, U-87 MG
[6] = test system: Neurosphere cells (TS603); assay: Cellular assay for IDH1m R132H inhibitors, 2-HG by LC-MS in neurosphere cells (TS603); assay type: cell-based; settings: 2-HG in media at 48 hours
Outline: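 TS603 neurosphere cells in NeuroCult medium were dosed with compound (0.25% DMSO final) at 37 C, 5% CO2. After 48 hours, medium 2-HG was measured by LC-MS. At 72 hours, viability was read by CellTiter-Glo luminescence.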

[7] = target: IDH1 wt/IDH1 R132C heterodimer (Homo sapiens (Human), UniProt O75874, R132C); assay: In vitro assay for IDH1m R132C inhibitors, IDH1 wt/IDH1 R132C heterodimer, NADPH depletion (diaphorase/resazurin); assay type: biochemical; settings: NADPH/NADP
IDH1 wt/IDH1 R132C heterodimer, sequence (O75874 whole entry R132C): as the sequence (O75874 whole entry R132H) above, with H132C counted along it
IDH1 wt/IDH1 R132C heterodimer, sequence (O75874 whole entry, stated change not applied): as the sequence (O75874 whole entry R132H) above, with H132R counted along it
Method: The following describes the experimental procedures that can be used to obtain data on columns 2 and 4 of Table 4 and column 2 of Table 5.
In the primary reaction, the reduction of α-KG acid to 2-HG is accompanied by a concomitant oxidation of NADPH to NADP. The amount of NADPH remaining at the end of the reaction time is measured in a secondary diaphorase/resazurin reaction in which the NADPH is consumed in a 1:1 molar ratio with the conversion of resazurin to the highly fluorescent resorufin.
The mixture of compound, enzyme, and cofactor is pre-incubated at room temperature for 1 hr prior to the addition of alpha-ketoglutarate. To perform the secondary reaction, 10 uL of 1× buffer containing 36 μg/ml diaphorase and […] resazurin is added to the primary reaction and incubated for a further 5 minutes at 25° C. Florescence is read on a Spectramax platereader at Ex 544 Em 590. Compounds or compound dilutions are prepared in 100% DMSO concentration and diluted 1:50 into the final reaction. […] IC50s are determined.
IDH1 or IDH2 wildtype (wt) and mutant heterodimers are expressed and purified by methods known in the art. For example, IDH1wt/R132m heterodimer is expressed and purified as follows. Co-expression of IDH1wt-his and IDH1R132C-flag is carried out in sf9 insect cells. Cells (25 g) are resuspended in 250 ml of 50 mM Tirs, 500 mM NaCl, pH7.4, at 4° C. with stirring. Cells are disrupted with 4 passes through an M-Y110 Micro fluidizer (Microfluidics) set to 500 psi, and then centrifuged at 22,000 rcf for 20 min at 4° C. The supernatant is harvested and loaded at 15 cm/h on a Histrap FF 5*1 ml column (GE) which is equilibrated with 50 mM Tirs, 500 mM NaCl, pH7.4. Host cell contaminants are removed by washing the column with equilibration buffer followed by equilibration buffer containing 20 mM imidazole and 60 mM imidazole to baseline. IDH1wt-his homodimer and IDH1wt-his/IDH1R132C-flag are eluted by equilibration buffer containing 250 mM imidazole. Fractions eluted by 250 mM imidazole are pooled together and loaded at 15 cm/h onto a column pre-packed with 10 ml ANTI-FLAG® M2 Affinity Gel (Sigma), the column is equilibrated with 50 mM Tris, 500 mM NaCl, pH7.4. After washing with equilibration buffer, IDH1wt-his/IDH1R132C-flag heterodimer is eluted by equilibration buffer containing flag peptide (0.2 mg/ml). Aliquots of IDH1wt-his/IDH1R132C-flag are flash frozen in liquid N2 and stored at −80° C. Same conditions are used for the purification of IDH1wt-his/IDH1R132H-flag.

IDH2 R140Q [8] = target: T1, IDH2 R140Q; assay: In vitro assay for IDH2m R140Q inhibitors, cofactor depletion assay, 16 hr preincubation with NADPH/NADP; assay type: biochemical; settings: read-out: IDH2 R140Q 16 hr NADPH/NADP IC50; 16 hrs preincubation with enzyme, 5 uM NADPH and 750 uM NADP
From the text: The following describes the experimental procedures used to obtain data on column 6 of Table 5.
The reaction is terminated by the addition of a second enzyme, diaphorase, and a corresponding substrate, resazurin. Diaphorase reduces resazurin to the highly fluorescent resorufin with the concomitant oxidation of NADPH to NADP, both halting the IDH2 reaction by depleting the available cofactor pool and facilitating quantitation of the amount of cofactor remaining after a specific time period through quantitative production of an easily detected fluorophore.
The test compound is then incubated for 16 hrs at room temperature with the enzyme and cofactors before starting the IDH2 reaction with the addition of 10 μl of substrate mix containing 8 mM α-KG (final concentration 1.6 mM) in the buffer described above. After a further 1 hour of incubation at room temperature, the reaction is halted and the remaining NADPH measured through conversion of resazurin to resorufin by the addition of 25 μl Stop Mix (36 μg/ml diaphorase enzyme and 60 μM resazurin; in buffer).

[9] = IDH1 wt/R132H heterodimer, NADPH/NADP, not saturated, read-out: IDH1 wt/R132H NADPH/NADP IC50 not saturated
[10] = IDH1 wt/IDH1 R132H heterodimer, 300 μM NADP (saturated), read-out: IDH1 wt/R132H NADPH/NADP IC50 saturated

IDH1 wt/IDH1 R132H heterodimer, sequence (O75874 whole entry R132H): as the sequence (O75874 whole entry R132H) above
IDH1 wt/IDH1 R132H heterodimer, sequence (O75874 whole entry, stated change not applied): as the sequence (O75874 whole entry R132H) above, with H132R counted along it

Structure (SMILES)	IC50 [1, 9] [µM]	IC50 [2] [µM]	IC50 [3] [µM]	IC50 (IDH2 R140Q [4]) [µM]	IC50 [5] [µM]	IC50 [6] [µM]	IC50 [7] [µM]	IC50 (IDH2 R140Q [8]) [µM]	IC50 [1, 10] [µM]
N#CC1(c2cc(Nc3nc(N[C@H]4CCC(F)(F)C4)nc(-c4cccc(C(F)(F)F)n4)n3)ccn2)CC1 [Compound 133]	< 0.05	0.05 to 0.1	0.1 to 1	< 0.05	< 0.05	< 0.05	–	–	–
N#CC1(c2cc(Nc3nc(N[C@@H]4CCC(F)(F)C4)nc(-c4cccc(C(F)(F)F)n4)n3)ccn2)CC1 [Compound 137]	< 0.05	< 0.05	0.1 to 1	< 0.05	< 0.05	< 0.05	–	–	–
FC1(F)CC[C@H](Nc2nc(Nc3ccnc(C(F)(F)F)c3)nc(-c3cccc(C(F)(F)F)n3)n2)C1 [Compound 158]	< 0.05	0.05 to 0.1	0.1 to 1	< 0.05	< 0.05	< 0.05	–	–	–
N#CC1(c2cc(Nc3nc(N[C@H]4CCC(F)(F)C4)nc(-n4ccc(C(F)(F)F)n4)n3)ccn2)CC1 [Compound 174]	< 0.05	< 0.05	0.05 to 0.1	< 0.05	< 0.05	< 0.05	–	–	–
FC1(F)CC(Nc2nc(Nc3ccnc(C(F)(F)F)c3)nc(-c3cccc(C(F)(F)F)n3)n2)C1 [Compound 190]	< 0.05	0.1 to 1	> 1	< 0.05	< 0.05	< 0.05	–	–	–
CC(COC(C)C)Nc1nc(N[C@H](C)C2CC2)nc(-c2cccc(C(F)(F)F)n2)n1 (stereo partly drawn) [Compound 241]	< 0.05	0.1 to 1	–	–	–	–	0.1 to 1	0.05 to 0.1	–
C[C@@H](Nc1nc(NCCOc2ccccc2)nc(-c2cccc(C(F)(F)F)n2)n1)C1CC1 [Compound 246]	0.05 to 0.1	0.1 to 1	–	0.05 to 0.1	0.05 to 0.1	–	0.05 to 0.1	< 0.05	–
CC(C)(O)CNc1nc(Nc2cccc(Cl)c2)nc(-c2cccc(C(F)(F)F)n2)n1 [Compound 248]	0.05 to 0.1	–	–	0.1 to 1	< 0.05	–	0.1 to 1	< 0.05	–
C[C@@H](Nc1nc(NCC(C)(C)C#N)nc(-c2cccc(C(F)(F)F)n2)n1)C1CC1 [Compound 262]	0.1 to 1	> 1	–	–	–	–	0.1 to 1	0.1 to 1	–
FC1(F)CC2(CC(Nc3nc(NC4CC5(C4)CC(F)(F)C5)nc(-c4cccc(Cl)n4)n3)C2)C1 [Compound 265]	0.1 to 1	> 1	–	–	–	–	0.1 to 1	0.1 to 1	–
CC(C)(C#N)CNc1nc(Nc2ccnc(C(C)(F)F)c2)nc(-c2cccc(C(F)(F)F)n2)n1 [Compound 267]	0.1 to 1	> 1	–	< 0.05	< 0.05	–	0.1 to 1	0.05 to 0.1	–
CC(CC#N)Nc1nc(NC(C)CC#N)nc(-c2cccc(Cl)n2)n1 (stereo not drawn) [Compound 271]	0.1 to 1	0.1 to 1	–	–	–	–	0.1 to 1	0.1 to 1	–
CC(C)(C)OC(=O)N1CCC(Nc2nc(NC3CCC(F)(F)CC3)nc(-c3cccc(C(F)(F)F)n3)n2)CC1 [Compound 274]	0.1 to 1	> 1	–	–	–	–	0.1 to 1	0.1 to 1	–
CC(C)(C)Nc1nc(Nc2ccnc(C(C)(F)F)c2)nc(-c2nccc(C(F)(F)F)n2)n1 [Compound 289]	0.1 to 1	> 1	–	< 0.05	< 0.05	–	≥ 1	0.05 to 0.1	–
CC(C)Nc1nc(Nc2ccnc(C(C)(F)F)c2)nc(-c2nccc(C(F)(F)F)n2)n1 [Compound 298]	0.1 to 1	> 1	–	< 0.05	< 0.05	–	≥ 1	0.05 to 0.1	–
CC(C)(O)CNc1nc(Nc2cc(F)cc(F)c2)nc(-c2nccc(C(F)(F)F)n2)n1 [Compound 325]	> 1	–	–	< 0.05	< 0.05	–	≥ 1	0.05 to 0.1	–
N#CC1(c2cc(Nc3nc(N[C@@H]4CCC(F)(F)C4)nc(-n4ccc(C(F)(F)F)n4)n3)ccn2)CC1 [Compound 350]	–	< 0.05	0.05 to 0.1	< 0.05	< 0.05	< 0.05	–	–	< 0.05
FC1(F)CC[C@H](Nc2nc(Nc3ccnc(C(F)(F)F)c3)nc(-n3ccc(C(F)(F)F)n3)n2)C1 [Compound 393]	–	0.05 to 0.1	0.1 to 1	< 0.05	< 0.05	< 0.05	–	–	< 0.05
C[C@@H](Nc1nc(Nc2ccnc(C(F)(F)F)c2)nc(-n2ccc(C(F)(F)F)n2)n1)C(F)(F)F [Compound 400]	–	0.1 to 1	0.1 to 1	< 0.05	< 0.05	< 0.05	–	–	< 0.05
FC1(F)CC[C@@H](Nc2nc(N[C@@H]3CCC(F)(F)C3)nc(-c3cncc(C(F)(F)F)n3)n2)C1 [Compound 410]	–	< 0.05	< 0.05	< 0.05	< 0.05	< 0.05	–	–	< 0.05
